Activity calls are given as the source filed them. The calls are words filed in the database; no cut-off is given here.
Columns and labels:
PC-3 [1] = experiment: Induction of cell cycle arrest in human PC-3 cells assessed as decrease in phosphorylated Cdc2 at […] by Western blotting analysis; format: functional, cell-based; conditions: dose 0.08-0.32 µM
A549 [2] = experiment: Inhibition of cell migration in human A549 cells at 0.4 to 1.6 uM incubated for 24 hrs by crystal violet staining based transwell method; format: functional; conditions: dose 0.4-1.6 µM
PC-3 [3] = experiment: Induction of ROS generation in human PC-3 cells at 0.32 uM incubated for 24 hrs by DCFH-DA staining based flow cytometry analysis (reference value: 2.63%); format: functional
PC-3 [4] = experiment: Induction of apoptosis in human PC-3 cells assessed as early apoptotic cells at 0.16 uM incubated for 24 hrs by Annexin V-FITC and PI staining based flow cytometry (reference value: 1.32%); format: functional
Tubulin (Homo sapiens) [5] = biological target: T1, Tubulin (Homo sapiens) (UniProt P68371+Q9H4B7+P0DPH7+P68366+Q13509+Q71U36+P04350+Q3ZCM7+P07437+P68363+Q9BQE3+Q6PEY2+Q13885+Q9BVA1+Q9BUF5); experiment: Binding affinity to tubulin colchicine binding site in human PC-3 cells assessed as reduction in beta-tubulin adduct formation at 5 uM preincubated for 2 hrs followed by EBI addition and measured after 1.5 hrs by Western blotting assay; format: cell-based; design: scale not given: the % may be the effect or the level left; conditions: time 3.5 hrs
PC-3 [6] = experiment: Induction of apoptosis in human PC-3 cells assessed as upregulation of cleaved PARP expression at 0.08 to 0.32 uM by Western blotting analysis; format: functional, cell-based; conditions: dose 0.08-0.32 µM
PC-3 [7] = experiment: Induction of mitochondrial membrane potential loss in human PC-3 cells incubated for 24 hrs by JC-1 staining based flow cytometry analysis; format: functional, cell-based; conditions: dose 0.08-0.32 µM
Tubulin (Homo sapiens) [8] = biological target: T1, Tubulin (Homo sapiens); experiment: Inhibition of microtubule polymerization in human PC-3 cells assessed as fragmented microtubule filaments at 0.32 uM incubated for 6 hrs by immunofluorescent staining based confocal microscopy assay; format: cell-based
Histone deacetylase 7 = biological target: T2, Histone deacetylase 7 (Homo sapiens, UniProt Q8WUI4); experiment: Inhibition of HDAC7 in human HeLa nuclear extracts incubated for 30 mins by fluorescence based assay; format: cell-free
T2 sequence (Q8WUI4 whole entry): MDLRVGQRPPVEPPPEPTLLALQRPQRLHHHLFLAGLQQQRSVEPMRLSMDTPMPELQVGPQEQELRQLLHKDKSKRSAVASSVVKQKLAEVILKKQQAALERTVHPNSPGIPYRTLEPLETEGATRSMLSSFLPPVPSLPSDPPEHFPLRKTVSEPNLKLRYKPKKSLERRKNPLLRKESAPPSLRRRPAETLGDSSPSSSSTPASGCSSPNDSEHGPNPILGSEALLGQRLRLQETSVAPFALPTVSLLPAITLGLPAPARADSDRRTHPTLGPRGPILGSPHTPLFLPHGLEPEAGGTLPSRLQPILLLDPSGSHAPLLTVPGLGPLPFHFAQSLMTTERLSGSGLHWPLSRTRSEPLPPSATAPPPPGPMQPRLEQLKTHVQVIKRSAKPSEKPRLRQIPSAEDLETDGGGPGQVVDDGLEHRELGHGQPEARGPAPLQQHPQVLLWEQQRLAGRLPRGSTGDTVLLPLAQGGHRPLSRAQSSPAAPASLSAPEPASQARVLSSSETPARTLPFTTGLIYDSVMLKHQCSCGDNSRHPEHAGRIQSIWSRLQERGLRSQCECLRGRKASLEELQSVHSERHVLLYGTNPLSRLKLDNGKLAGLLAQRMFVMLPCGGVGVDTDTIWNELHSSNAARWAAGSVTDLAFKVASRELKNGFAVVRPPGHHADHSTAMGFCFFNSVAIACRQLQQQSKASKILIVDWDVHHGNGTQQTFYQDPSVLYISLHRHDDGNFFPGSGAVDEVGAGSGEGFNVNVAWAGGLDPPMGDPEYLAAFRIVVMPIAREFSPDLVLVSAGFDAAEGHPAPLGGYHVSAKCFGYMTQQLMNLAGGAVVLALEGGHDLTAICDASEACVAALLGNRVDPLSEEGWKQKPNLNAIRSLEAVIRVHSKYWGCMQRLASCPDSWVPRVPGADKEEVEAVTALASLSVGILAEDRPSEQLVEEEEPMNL

Tubulin (Homo sapiens) [9] = biological target: T1, Tubulin (Homo sapiens); experiment: (§1) Inhibition of tubulin polymerization (unknown origin) measured after 60 mins by fluorescence based assay; format: protein-complex assay
Tubulin = experiment: as §1; format: protein-complex assay, Homo sapiens
A549 [10] = experiment: Inhibition of cell migration in human A549 cells incubated for 24 hrs by scratch wound healing method; format: functional, cell-based; conditions: dose 0.4-1.6 µM
Histone deacetylase 2 = Histone deacetylase 2 (Homo sapiens, UniProt Q92769); experiment: Inhibition of HDAC2 in human HeLa nuclear extracts incubated for 30 mins by fluorescence based assay; format: cell-based
Sequence of Histone deacetylase 2 (Q92769 whole entry): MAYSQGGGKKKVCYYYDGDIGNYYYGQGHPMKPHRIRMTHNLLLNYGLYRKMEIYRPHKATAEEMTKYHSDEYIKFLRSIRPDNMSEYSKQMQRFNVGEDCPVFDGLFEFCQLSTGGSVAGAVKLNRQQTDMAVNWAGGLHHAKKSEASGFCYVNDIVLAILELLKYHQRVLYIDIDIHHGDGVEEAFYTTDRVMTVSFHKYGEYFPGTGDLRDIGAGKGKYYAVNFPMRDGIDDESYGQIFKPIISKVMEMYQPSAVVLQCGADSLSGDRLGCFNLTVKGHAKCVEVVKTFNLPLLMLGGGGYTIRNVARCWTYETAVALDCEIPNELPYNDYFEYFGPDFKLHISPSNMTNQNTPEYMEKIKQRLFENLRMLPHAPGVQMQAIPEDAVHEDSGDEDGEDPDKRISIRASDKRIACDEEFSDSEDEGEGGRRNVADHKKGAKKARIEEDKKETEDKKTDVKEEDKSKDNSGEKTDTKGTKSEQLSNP

PC-3 [11] = experiment: Induction of apoptosis in human PC-3 cells assessed as late apoptotic cells at 0.32 uM incubated for 24 hrs by Annexin V-FITC and PI staining based flow cytometry (reference value: 1.02%); format: functional
PC-3 [12] = experiment: Induction of apoptosis in human PC-3 cells assessed as viable cells at 0.16 uM incubated for 24 hrs by Annexin V-FITC and PI staining based flow cytometry (reference value: 97.5%); format: functional; conditions: read-out: Activity
PC-3 [13] = experiment: Induction of cell cycle arrest in human PC-3 cells assessed as G1 phase cells at 0.32 uM incubated for 24 hrs by PI staining based flow cytometry analysis (reference value: 56.17%); format: functional
PC-3 [14] = experiment: Antitumor activity against human PC-3 cells xenografted in BALB/c nude mouse assessed as tumor growth inhibition at 20 mg/kg, iv administered every 2 days and measured after 3 weeks; format: functional; conditions: PC-3, 48 h, time 2 day, read-out: TGI
Histone deacetylase 1 = Histone deacetylase 1 (Homo sapiens, UniProt Q13547); experiment: Inhibition of HDAC1 in human HeLa nuclear extracts incubated for 30 mins by fluorescence based assay; format: cell-free
Sequence of Histone deacetylase 1 (Q13547 whole entry): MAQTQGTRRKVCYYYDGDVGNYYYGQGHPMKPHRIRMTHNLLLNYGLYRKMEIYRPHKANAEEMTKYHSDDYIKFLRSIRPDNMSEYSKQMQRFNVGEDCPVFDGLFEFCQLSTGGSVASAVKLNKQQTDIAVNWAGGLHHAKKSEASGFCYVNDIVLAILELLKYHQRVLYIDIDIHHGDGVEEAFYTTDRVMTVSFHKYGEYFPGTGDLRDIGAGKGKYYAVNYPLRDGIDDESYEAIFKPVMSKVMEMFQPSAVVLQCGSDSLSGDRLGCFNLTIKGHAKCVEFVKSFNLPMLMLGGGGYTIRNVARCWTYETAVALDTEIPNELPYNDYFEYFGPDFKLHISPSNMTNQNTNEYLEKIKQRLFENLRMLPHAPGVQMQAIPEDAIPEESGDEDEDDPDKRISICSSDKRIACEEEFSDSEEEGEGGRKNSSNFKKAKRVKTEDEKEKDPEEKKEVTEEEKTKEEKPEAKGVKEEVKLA

[15] = Clearance in Sprague-Dawley rat at 2 mg/kg, iv measured upto 24 hrs by HPLC-MS analysis; format: ADME, organism-based; conditions: in vivo
PC-3 [16] = experiment: Induction of cell cycle arrest in human PC-3 cells assessed as decrease in phosphorylated […] Tyr15 by Western blotting analysis; format: functional, cell-based; conditions: dose 0.08-0.32 µM
PC-3 [17] = experiment: Induction of cell cycle arrest in human PC-3 cells assessed as G1 phase cells at 0.16 uM incubated for 24 hrs by PI staining based flow cytometry analysis (reference value: 56.17%); format: functional
PC-3 [18] = experiment: Induction of cell cycle arrest in human PC-3 cells assessed as G2/M phase cells at 0.32 uM incubated for 24 hrs by PI staining based flow cytometry analysis (reference value: 12.83%); format: functional
PC-3 [19] = experiment: Inhibition of colony formation in human PC-3 cells at 5 nM incubated for 24 hrs followed by replacement with fresh media and measured after 2 weeks by crystal violet staining based assay; format: functional, cell-based

- Activity (Tubulin (Homo sapiens) [5]): 100%
- inhibition (Tubulin (Homo sapiens) [8]): Active
- IC50 (Histone deacetylase 7): 2.34 µM
- inhibition (Tubulin (Homo sapiens) [9]): Dose-Dependent Effect
- IC50 (Tubulin): 4.82 µM
- IC50 (Histone deacetylase 2): 0.43 µM
- IC50 (Histone deacetylase 1): 0.73 µM
- clearance [15]: 5 mL/min/kg
SMILES: COc1ccc(/C=C/C(=O)c2ccc(OC)c3c2OC(C)(C)C=C3)cc1NCC(=O)NO
- Activity (PC-3 [1]): Active
- inhibition (A549 [2]): Active
- Activity (PC-3 [3]): 83.1%
- Activity (PC-3 [4]): 15.5%
- Activity (PC-3 [6]): Active
- Activity (PC-3 [7]): Dose-Dependent Effect
- inhibition (A549 [10]): Dose-Dependent Effect
- Activity (PC-3 [11]): 8.39%
- viability at 0.16 µM (PC-3 [12]): 78.8%
- Activity (PC-3 [13]): 6%
- inhibition in vivo at 20 mg/kg (PC-3 [14]): 90.1%
- Activity (PC-3 [16]): Active
- Activity (PC-3 [17]): 18.7%
- Activity (PC-3 [18]): 82.04%
- inhibition (PC-3 [19]): Active
